Earlier results, collected in patent publication US9333184B2, “Composition and method for affecting male and female hormone levels” (NOKOMIS RESEARCH, INC., priority 2011, dated 2016).

Settings: for ingested amount metabolically degraded: intestine to blood stream

SMILES	ingested amount metabolically available	ingested amount metabolically degraded [%]
NCCCCNCCCN [spermidine]	about 70%	30
NCCCNCCCCNCCCN [spermine]	about 70%	30
